Assay in all cases: NCI tumour cell line growth inhibition, 48 h
Assay [1] deals with A549.
The subject of assay [2] is CAKI-1.
Assay [3] has as its system EKVX.
Assay [4] concerns HCC 2998.
Assay [5] has as its system HL-60.
In assay [6] the test system is HOP-92.
The subject of assay [7] is MCF7.
Assay [8] relates to MDA-MB-435.
Assay [9] relates to NCI/ADR-RES.
Assay [10] concerns OVCAR-3.
The subject of assay [11] is OVCAR-4.
The subject of assay [12] is OVCAR-8.
Assay [13] has as its system SK-MEL-2.
For assay [14], the system named is SK-OV-3.
Assay [15] concerns SW-620.
In assay [16] the test system is Malme-3M.
Assay [17] deals with RPMI-8226.
For assay [18], the system named is RXF 393.
The subject of assay [19] is SF-268.
Assay [20] concerns A498.

Molecules are shown by their SMILES.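 Five concentrations, 48 hours, 96-well plates. Here, GI50 denotes the concentration required for 50% inhibition of growth.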 Active and inactive are the calls of the source. No stated cut-off is given here; in the data, active = GI50 up to about 1.1 µM and inactive = higher. A value given as a limit tells only on which side of the number the result lay.

Turning to `Cc1ccccc1NC(=O)Cc1csc2[n+]1C(=O)/C(=C/c1ccc([N+](=O)[O-])cc1)S2`, the GI50 in assay [1] is 32 µM (inactive); in assay [2], 25.5 µM (inactive); in [3], 22.7 µM (inactive); in assay [4] it was 28.1 µM (inactive); in assay [5] it was 27.7 µM (inactive); in assay [6], 19.5 µM (inactive). Further, the GI50 was 42.9 µM (inactive) in assay [7]; 30.3 µM (inactive) in assay [8]; 42.4 µM (inactive) in assay [9]; 31.2 µM (inactive) in assay [10]; 12.1 µM (inactive) in [11]; 24.8 µM (inactive) in [12]. Moreover, the values for the GI50 in assay [13], in assay [14] and in assay [15] were 29.4 µM (inactive), > 100 µM (inactive) and 33.6 µM (inactive), respectively.
Consider `CC(C)=CCN1c2ccccc2[C@@]2(CC=C(C)C)CCN(C)[C@@H]12` [(+)-DEBROMOFLUSTRAMINE B], for which the GI50 was 36.1 µM (inactive) in [1]; 26.8 µM (inactive) in [2]; 21.2 µM (inactive) in assay [3]; 13.7 µM (inactive) in [4]; 16.1 µM (inactive) in [5]; 32.7 µM (inactive) in assay [6]. For the same compound, the GI50 in [7] was 17.3 µM (inactive); in assay [8], 21.1 µM (inactive); in assay [16], 17.7 µM (inactive); in assay [9] it was 18.3 µM (inactive); in [10] it was 18.1 µM (inactive); in assay [11], 35.6 µM (inactive). Moreover, the GI50 in assay [12] was 28.2 µM (inactive); in assay [17], 21.6 µM (inactive); in assay [18], 28.5 µM (inactive); in [19], 46.3 µM (inactive); in assay [13] it was 14 µM (inactive); in [14], 24.4 µM (inactive). Besides, the GI50 in assay [15] is 26.7 µM (inactive).
Consider `CCCCCCCCCCC(C(=O)O)C1(C(=O)O)CCC(=O)O1` (stereo not drawn), for which the GI50 in assay [1] is > 100 µM (inactive); in assay [2] it was > 100 µM (inactive); in assay [3], > 100 µM (inactive); in [4], > 100 µM (inactive); in [5], 90.8 µM (inactive); in assay [6], > 100 µM (inactive). The GI50 in assay [7] was > 100 µM (inactive); in [8] it was > 100 µM (inactive); in assay [9], > 100 µM (inactive); in [10] it was > 100 µM (inactive); in assay [11] it was 43.2 µM (inactive); in assay [12], > 100 µM (inactive). For the same compound, the GI50 in [17], in [18], in assay [19], in [13], in [14] and in assay [15] was > 100 µM (inactive) each time.
On to `Cc1ccc(-c2nc(-c3cnccn3)n(C3OC(CO)C(O)C(O)C3O)n2)cc1` (stereo not drawn), for which the GI50 in assay [1], in assay [3], in assay [4], in [5], in assay [6] and in assay [7] was > 100 µM (inactive) in each case. Also, the GI50 in assay [8], in assay [9], in assay [10], in assay [11], in [12] and in assay [17] was > 100 µM (inactive) throughout. Further, the GI50 in [18], in assay [19] and in assay [15] was > 100 µM (inactive) in each case.
`CSc1ccc(/C=C2\N=C(c3ccccc3)N(/N=C/c3cc4cc(C)ccc4nc3Cl)C2=O)cc1`: the GI50 was 17.5 µM (inactive) in assay [20]; 19.5 µM (inactive) in [1]; 18.1 µM (inactive) in assay [2]; 32.4 µM (inactive) in assay [3]; 16 µM (inactive) in assay [4]; 22 µM (inactive) in [5]. For the same compound, the GI50 in assay [6] was 17.9 µM (inactive); in assay [7], 11.4 µM (inactive); in [8], 8.15 µM (inactive); in assay [9], 19.1 µM (inactive); in assay [10], 19.5 µM (inactive); in [11], 17.1 µM (inactive). For the same compound, the GI50 in assay [12] was 16.1 µM (inactive); in [17] it was 27.6 µM (inactive); in [19], 19.1 µM (inactive); in assay [13], 16.8 µM (inactive); in [14], 24 µM (inactive); in assay [15], 27.4 µM (inactive).
On to `O=[PH]1c2ccccc2Nc2ccccc21`, for which the GI50 is 21.7 µM (inactive) in assay [20]; > 100 µM (inactive) in assay [1]; > 100 µM (inactive) in assay [2]; 22.4 µM (inactive) in assay [3]; > 100 µM (inactive) in [4]; 75.7 µM (inactive) in [5]. Also, the GI50 in [6] was > 100 µM (inactive); in [7], > 100 µM (inactive); in [8], > 100 µM (inactive); in [16], 80.2 µM (inactive); in assay [9] it was > 100 µM (inactive); in assay [10] it was 52.6 µM (inactive). For the same compound, the GI50 in assay [11] is 64.7 µM (inactive); in [12], > 100 µM (inactive); in [18] it was > 100 µM (inactive); in [19] it was > 100 µM (inactive); in [13] it was 49.9 µM (inactive); in assay [14], > 100 µM (inactive). Further, in [15], the GI50 is 63.7 µM (inactive).
In the case of `COc1ccc(Oc2cccc(/C=C3/C(=O)Nc4ccccc43)c2)cc1`, the GI50 in [20] is 12.2 µM (inactive); in assay [1], 7.19 µM (inactive); in assay [2], 6.87 µM (inactive); in assay [3], 10.9 µM (inactive); in [4] it was 9.31 µM (inactive); in assay [5], 3.05 µM (inactive). For the same compound, the GI50 in assay [6] is 3.53 µM (inactive); in assay [7], 3.41 µM (inactive); in assay [8], 3.58 µM (inactive); in assay [16] it was 11.2 µM (inactive); in [9], 4.91 µM (inactive); in [10], 7.89 µM (inactive). The GI50 is 14 µM (inactive) in assay [11]; 16.9 µM (inactive) in assay [12]; 3.94 µM (inactive) in [18]; 11.4 µM (inactive) in assay [19]; 11.1 µM (inactive) in assay [13]; 13.8 µM (inactive) in assay [14]. Moreover, in assay [15], the GI50 is 11.1 µM (inactive).
With `CCN(CC)C1=Nc2ccccc2-n2ccnc2C1`, the GI50 in assay [20] is > 100 µM (inactive); in assay [1], > 100 µM (inactive); in [2], > 100 µM (inactive); in [3], > 100 µM (inactive); in assay [4], > 100 µM (inactive); in [5], 78.2 µM (inactive). For the same compound, the GI50 in assay [6], in assay [7], in assay [8], in assay [9], in assay [10] and in assay [11] was > 100 µM (inactive) throughout. The GI50 in [12], in [18], in assay [19], in assay [13] and in [15] was > 100 µM (inactive) in each case.
Turning to `CN(C)S(=O)(=O)c1ccc2c(c1)/C(=C1/Nc3ccccc3C1=O)C(=O)N2`, the GI50 in assay [20] was 29.8 µM (inactive); in assay [1], > 100 µM (inactive); in assay [2], > 100 µM (inactive); in assay [3] it was 24 µM (inactive); in assay [4], > 100 µM (inactive); in [6], 16.8 µM (inactive). Further, the GI50 in assay [7] was 24.8 µM (inactive); in [8], > 100 µM (inactive); in assay [16], > 100 µM (inactive); in [9] it was 71.9 µM (inactive); in assay [10], 93.1 µM (inactive); in assay [11] it was > 100 µM (inactive). Further, the GI50 was 32.5 µM (inactive) in [12]; > 100 µM (inactive) in assay [17]; 1.71 µM (inactive) in assay [18]; 14.7 µM (inactive) in assay [19]; 18.4 µM (inactive) in assay [13]; 13.9 µM (inactive) in [14]. The GI50 in [15] was > 100 µM (inactive).
Regarding `CCCCCCCCCCCCCC[S+](C)C`, the GI50 in [1] is 1.68 µM (inactive); in assay [2], 2.61 µM (inactive); in [3] it was 3.01 µM (inactive); in assay [4], 1.66 µM (inactive); in assay [5] it was 1.03 µM (active); in assay [6], 1.18 µM (inactive). Further, the GI50 was 1.67 µM (inactive) in [7]; 1.91 µM (inactive) in assay [8]; > 10 µM (inactive) in assay [9]; 1.48 µM (inactive) in assay [10]; 2.4 µM (inactive) in [11]; 1.77 µM (inactive) in assay [12]. Also, the GI50 was 0.601 µM (active) in assay [17]; 1.2 µM (inactive) in assay [18]; 1.51 µM (inactive) in assay [19]; 2.02 µM (inactive) in assay [13]; 4.02 µM (inactive) in assay [14]; 2.33 µM (inactive) in [15].
For `Cc1nc2c(c(N3CCN(C)CC3)n1)Cc1ccccc1-2`, the GI50 is 44.2 µM (inactive) in assay [1]; 17.1 µM (inactive) in assay [2]; 42.4 µM (inactive) in assay [3]; 42.1 µM (inactive) in assay [5]; 36.7 µM (inactive) in assay [6]; 70.3 µM (inactive) in [7]. Besides, the GI50 in assay [8] was 64.7 µM (inactive); in assay [16], 40.8 µM (inactive); in [9] it was 49.5 µM (inactive); in assay [12], 54 µM (inactive); in assay [17], > 100 µM (inactive); in assay [18], > 100 µM (inactive). Moreover, the GI50 in [19] is 62.4 µM (inactive); in assay [13], 75.5 µM (inactive); in [14], > 100 µM (inactive); in assay [15], 31 µM (inactive).

The values are drawn from ChEMBL document CHEMBL1201862, “PubChem BioAssay data set” (2004).
